The source of these data is patent US20230255975A1, “METHODS FOR TREATING CANCER WITH COMBINATION THERAPIES” (Celgene Corporation, priority 2020, published 2023).

One assay relates to MM1.S cell line. The assay is described as follows: Proliferation assay. It counts as cell-based. Conditions: Homo sapiens, 1q amp 3×, BRD4/BET inhibition. The procedure:
(§1) Proliferation and viability assays: Cell growth curves were determined by monitoring the viability of cells with Trypan blue exclusion on a Vi-Cell-XR (Becton Dickinson, Franklin Lakes, N.J., USA). Proliferation assays were performed in triplicate at least three times (n=3) using (3H)-thymidine incorporation. All data were plotted and analyzed using GraphPad Prism 7 (GraphPad Software, La Jolla, Calif., USA) software, represented as the mean with an error determined as ±s.d.

The next assay concerns DF15/PR cell line. The assay is described as follows: Proliferation assay. It is filed as cell-based. Particulars: 1q amp 3×, BRD4/BET inhibition. The procedure:
as §1

A further assay relates to KMS11 cell line. Description: Proliferation assay. It is filed as cell-based. Particulars: Homo sapiens, KMS-11, 1q amp 6-8×, BRD4/BET inhibition. The procedure:
as §1

Another assay concerns U266 cell line. Description: Proliferation assay. It is filed as cell-based. Particulars: Homo sapiens, U-266, 1q amp 3×, BRD4/BET inhibition, read-out: IC50. The procedure: as §1
Assay [1] deals with CKS1B and E2F2 in MDMS8-like (DF15PR) cell line. Description: Immunoblot of CKS1B and E2F2 after BET inhibitors. It counts as cell-based. Particulars: FIG. 10A. From the text:
(§2) Effects of BRD4 inhibitors on CKS1B and E2F2 and their target genes. CKS1B and E2F2 have been enlisted as super-enhancer (SE) associated genes in MM (Loven, J., et al., Cell, 2013, 153(2): p. 320-34). In order to pharmacologically target CKS1B and E2F2, the BET inhibitors JQ1 and Compound A were utilized in MDMS8-like and H929 cell lines. […] BET inhibitors also promoted a decrease in Cereblon substrates, Ikaros, Aiolos and c-Myc levels. Further, an increase in the levels of P27 was observed, which is a negative regulator of CKS1B signaling. Immunofluorescence staining was performed to analyze the localization and expression of CKS1B and E2F2 in response to JQ1 and confirmed the decrease in their nuclear expression in MDMS8-like cells (data not shown). Since BET inhibitors mediate their changes mainly at transcript levels, transcript levels of CKS1B and E2F2 were analyzed in response to BET inhibitors. In both MDMS8-like and H929 cell lines, BET inhibitors promoted a decrease in transcript levels of CKS1B and E2F2 (FIG. 10C, FIG. 10D, FIG. 10E, and FIG. 10F). […] To ascertain the SE mediated regulation of CKS1B and E2F2, CDK7 inhibitors targeting SE-associated complexes in MM cell lines were utilized.

The subject of assay [2] is CKS1B and E2F2 in H929 cell line. The assay is described as follows: Immunoblot of CKS1B and E2F2 after BET inhibitors. It counts as cell-based. Particulars: FIG. 10B.
From the text: as §2

The test system of another assay is Mc-CAR cell line. Description: Proliferation assay. Conditions: McCAR; 1q amp normal; BRD4/BET inhibition; read-out: IC50. It is filed as cell-based. The protocol: as §1
(§3) Proliferation and viability assay. Cell growth curves were determined by monitoring the viability of cells with Trypan blue exclusion on a Vi-Cell-XR (Becton Dickinson, Franklin Lakes, N.J., USA). Cell lines were plated in triplicate in 96-well round-bottom plates with the indicated drug concentrations or knockdown cells. Proliferation assays were performed in triplicate at least three times (n=3) using either the WST-1 tetrazolium salt (Roche Applied Science) reagent used according to the manufacturer's specifications or by (3H)-thymidine incorporation as previously described (Bjorklund et al., Blood Cancer Journal 5, e354, 2015). All data were plotted and analyzed using GraphPad Prism 7 (GraphPad Software, La Jolla, Calif., USA) software, represented as the mean with an error determined as ±s.d.

A further assay concerns H929 cell line. Description: Proliferation assay. It counts as cell-based. Conditions: Homo sapiens, NCI-H929, 1q amp 3-4×, BRD4/BET inhibition, read-out: IC50. The protocol:
as §1, §3

A further assay concerns several MM cell lines. Description: Proliferation of MM cell lines with CDK7 inhibitor. It is filed as cell-based. Conditions: data not shown. The procedure: as §1
Effects of BRD4 inhibitors on CKS1B and E2F2 and their target genes. CKS1B and E2F2 have been enlisted as super-enhancer (SE) associated genes in MM (Loven, J., et al., Cell, 2013, 153(2): p. 320-34). In order to pharmacologically target CKS1B and E2F2, the BET inhibitors JQ1 and Compound A were utilized in MDMS8-like and H929 cell lines. […] BET inhibitors also promoted a decrease in Cereblon substrates, Ikaros, Aiolos and c-Myc levels. Further, an increase in the levels of P27 was observed, which is a negative regulator of CKS1B signaling. Immunofluorescence staining was performed to analyze the localization and expression of CKS1B and E2F2 in response to JQ1 and confirmed the decrease in their nuclear expression in MDMS8-like cells (data not shown). Since BET inhibitors mediate their changes mainly at transcript levels, transcript levels of CKS1B and E2F2 were analyzed in response to BET inhibitors. […]

For a further assay, the system named is AMO1 cell line. The assay is described as follows: Proliferation assay. It is filed as cell-based. Particulars: AMO1; for Synergy with trametinib on proliferation: in combination with trametinib. The protocol: as §1
(§4) Proliferation and viability assay. Cell growth curves were determined by monitoring the viability of cells with Trypan blue exclusion on a Vi-Cell-XR (Becton Dickinson, Franklin Lakes, N.J., USA). Cell lines were plated in triplicate in 96-well round-bottom plates with the indicated drug concentrations or knockdown cells. […] All data were plotted and analyzed using GraphPad Prism 7 (GraphPad Software, La Jolla, Calif., USA) software, represented as the mean with an error determined as ±s.d.

The test system of another assay is K12PE-PR cell line. The assay is described as follows: Proliferation assay. It is filed as cell-based. Conditions: Pom resistant K12PE-PR; in combination with JQ1. The procedure:
as §1, §4

The test system of assay [3] is AMO1-PR (pomalidomide resistant) cell line. Description: Proliferation assay. It is filed as cell-based. Particulars: for Synergy with trametinib on proliferation: in combination with trametinib. The procedure: as §1, §4
For a further assay, the system named is K12PE cell line. Description: Proliferation assay. It is filed as cell-based. Particulars: for Synergy analysis (Calcusyn) of combination with JQ1 on proliferation: K12PE cells, in combination with JQ1. The procedure:
as §1, §4

In assay [4] the test system is AMO1 NEK2 shRNA (NEK2 knocked-down) cells. The assay is described as follows: Proliferation assay in NEK2 knocked-down cells. It counts as cell-based. The protocol:
as §3
(§5) To further confirm the synergistic effect, shRNA knockdown was combined with either Compound 5 or Compound 6 treatment. Expression of control and NEK2 shRNA in AMO1 cell lines was induced, followed by exposure of the cells to increasing concentrations of Compound 5 and Compound 6. The results were measured through a proliferation assay.

For a further assay, the system named is AMO1 control shRNA cells. Description: Proliferation assay in control shRNA cells. Conditions: Homo sapiens, AMO1, read-out: IC50, proliferation. It is filed as cell-based. The procedure: as §3, §5
A further assay concerns AMO1 cells. Description: Apoptosis by Annexin V and Topro staining. It counts as cell-based. Conditions: AMO-1 cells. The procedure:
(§6) Flow cytometry: Annexin-V Alexa Fluor 488-conjugated antibody (Thermo Scientific, Waltham, Mass., USA) and To-Pro-3 (Thermo Scientific, Waltham, Mass., USA) were used according to the manufacturer's protocol and processed using Flow Jo software for at least three independent experiments. For cell cycle analysis, cells were stained with Propidium Iodide (PI) staining kit (Abcam, Cambridge, Mass., USA) and analysis was performed on Flow Jo V10 software. Staining of mitotic marker pHH3-Ser^10 was also performed by pHH3-Ser^10 and PI dual staining.
(§7) The PLK1 inhibitor BI2536 and Compound 5 were tested for their activity as individual agents and in combination in AMO1 parental and AMO1-PR cell lines. […] Changes in apoptosis were analyzed using the single agent treatments and their combination using Annexin V and Topro staining. […] Changes in Ikaros and pro-survival signaling in these cell lines was analyzed in response to BI2536 and Compound 5 after 24 and 72 hours of treatment (FIG. 5K).

A further assay concerns AMO1-PR cells. Description: Apoptosis by Annexin V and Topro staining. It is filed as cell-based. The procedure:
as §6, §7

Assay [5] concerns acute myeloid leukemia (AML). Particulars: administered alone; cited from earlier work.

For `Cc1sc2c(c1C)C(c1ccc(Cl)cc1)=N[C@@H](CC(=O)OC(C)(C)C)c1nnc(C)n1-2` [JQ1, (S)-tert-butyl 2-(4-(4-chlorophenyl)-2,3,9-trimethyl-6H-thieno[3,2-f][1,2,4]triazolo[4,3-a][1,4]diazepin-6-yl)acetate], the IC50 with MM1.S cell line is 15.2 nM; in the assay on DF15/PR cell line, 37.8 nM; in the assay on KMS11 cell line, 36.2 nM; in the assay with U266 cell line, 14.8 nM; with Mc-CAR cell line, 83.5 nM; with H929 cell line it was 51.7 nM. Also, the “protein levels of CKS1B and E2F2” value is “dose and time dependent decrease” in [1]; “dose and time dependent decrease” in [2].

Consider `CN(C)C/C=C/C(=O)Nc1ccc(C(=O)Nc2cccc(Nc3ncc(Cl)c(-c4c[nH]c5ccccc45)n3)c2)cc1` [THZ1], for which the proliferation entry in the assay on several MM cell lines is reported as “potent decrease in proliferation”.

Take `Cn1cc(-c2cc(S(C)(=O)=O)ccc2OCC2CC2)c2ccccc2c1=O` [Compound A, 4-[2-(cyclopropylmethoxy)-5-(methanesulfonyl)phenyl]-2-methylisoquinolin-1(2H)-one]: the IC50 in the assay on MM1.S cell line is 28.2 nM; in the assay with DF15/PR cell line, 35.9 nM; in the assay on KMS11 cell line, 40.3 nM; in the assay with U266 cell line it was 33.9 nM; with Mc-CAR cell line, 93.4 nM; with H929 cell line it was 54.1 nM. Further, the “protein levels of CKS1B and E2F2” value was “dose and time dependent decrease” in assay [1]; “dose and time dependent decrease” in assay [2].

`Nc1cccc2c1CN(C1CCC(=O)NC1=O)C2=O` (centres unmarked) [Compound 2, 3-(4-amino-1-oxo-1,3 dihydro-isoindol-2-yl)-piperidine-2,6-dione]: the “Synergy with trametinib on proliferation” value (in the assay with AMO1 cell line; in assay [3]) was “strong synergy” throughout. Moreover, in the assay on K12PE-PR cell line, the “Synergy of combination with JQ1 on proliferation” value is given as “synergistically decreased proliferation”. Further, the “Synergy analysis (Calcusyn) of combination with JQ1 on proliferation” value with K12PE cell line is “synergistic”.

`N#Cc1ccc(N2CCN(Cc3ccc(COc4cccc5c4CN([C@H]4CCC(=O)NC4=O)C5=O)cc3)CC2)c(F)c1` [Compound 6, (S)-4-(4-(4-(((2-(2,6-dioxopiperidin-3-yl)-1-oxoisoindolin-4-yl)oxy)methyl)benzyl)piperazin-1-yl)-3-fluorobenzonitrile]: the IC50 in assay [4] (Homo sapiens, NEK2 knocked-down AMO1 cells) was 2.89 nM; in the assay on AMO1 control shRNA cells, 29.6 nM. Further, the “Increase of activity by NEK2 knockdown in comparison to control shRNA cell line” value in assay [4] (IC50 control cells vs NEK2 knocked-down cells) was found to be 10 fold. Besides, the “Synergy (Calcusyn) with NEK2 inhibitors (JH295 and rac-CCT 250863) on proliferation” value (in the assay on AMO1 cell line (NEK2 inhibitor 0.016-10 μM); in assay [3] (NEK2 inhibitor 0.016-10 μM)) was “strong synergy” throughout. The “Combination analysis (Calcusyn) with YM155 on proliferation” value (with AMO1 cell line (in combination with YM155); in assay [3] (in combination with YM155)) was “synergistic activity” throughout. For the same compound, the “Synergy with trametinib on proliferation” value (in the assay on AMO1 cell line; in assay [3]) was “strong synergy” in each case. For the same compound, in the assay with K12PE-PR cell line, the “Synergy of combination with JQ1 on proliferation” value was “synergistically decreased proliferation”. For the same compound, in the assay with K12PE cell line, the “Synergy analysis (Calcusyn) of combination with JQ1 on proliferation” value is given as “synergistic”.

Consider `CC[C@@H]1C(=O)N(C)c2cnc(Nc3ccc(C(=O)NC4CCN(C)CC4)cc3OC)nc2N1C1CCCC1` [BI2536, (R)-4-((8-cyclopentyl-7-ethyl-5-methyl-6-oxo-5,6,7,8-tetrahydropteridin-2-yl)amino)-3-methoxy-N-(1-methylpiperidin-4-yl)benzamide], for which the “Activity in biallelic P53 cell line compared to P53-wild type cells” value in the assay with K12PE cell line (K12PE vs AMO1, FIG. 7B) is “higher activity”. Besides, the late apoptosis in the assay with AMO1 cells (vehicle 2.24%) is 4.25%; in the assay on AMO1-PR cells (vehicle 2.77%) it was 7.55%. Besides, the values for the early apoptosis in the assay with AMO1 cells (vehicle 2.69%) and in the assay with AMO1-PR cells (vehicle 3.82%) were 10.9% and 23.2%, respectively.

For “CT-011: anti-PD-1 antibody, a humanized antibody”, the “response in treating acute myeloid leukemia (AML) at relapse” value in [5] is recorded as “failed to show response”.
